Measurements taken from patent publication US20160046618A1, “Cyclopropyl Fused Thiazin-2-Amine Compounds as Beta-Secretase Inhibitors and Methods of Use” (AMGEN INC., priority 2014, published 2016).

How the values were obtained:
[1] = biological target: human recombinant BACE1 (Homo sapiens (Human), UniProt P56817); assay: In vitro enzymatic BACE1 FRET assay; format: biochemical; settings: BACE1 FRET enzyme assay; read-out: IC50 IP (μM) BACE1 enzyme
How it was run: (§1)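 Fluorescence from cleavage of a quenched peptide spanning the BACE site (50 nM) was read at 488 nm excitation, 590 nm emission. Purified enzyme (Ni-NTA) and compound reacted for one hour before a Tris stop shifted pH to neutral.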

[2] = biological target: human recombinant BACE2 (Homo sapiens (Human), UniProt Q9Y5Z0); assay: In vitro enzymatic BACE2 FRET assay; format: biochemical; settings: BACE2 FRET enzyme assay; read-out: IC50 IP (μM) BACE2 enzyme
How it was run: as §1

[3] = system: Aβ40 in conditioned medium of cells stably expressing Amyloid Precursor Protein (APP); assay: In vitro BACE-1 cell-based assay (Aβ40 sandwich ELISA); settings: BACE1 cell-based assay; read-out: IC50 IP (μM) BACE1 cell
How it was run: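 Aβ40 in supernatants measured by time-resolved fluorescence sandwich ELISA, with pAb40 as capture and biotin-6E10 as detector antibody, each incubated at 4 °C.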

[4] = biological target: Recombinant Cat D (Homo sapiens (Human), UniProt P07339); assay: In vitro enzymatic Cathepsin D (Cat D) FRET assay; format: biochemical; settings: Cathepsin D FRET enzyme assay; read-out: IC50 IP (μM) CatD
How it was run: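 Fluorescence at 500 nm excitation and 580 nm emission reports cleavage of a quenched fluorophore–quencher peptide (20 nM) by CHO-expressed Cat D. Reactions ran one hour in 0.05 M citrate pH 3.5, 5 mM CHAPS, 10% DMSO final before a Tris stop raised pH to neutrality.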

[5] = system: Aβ 40 in rat CSF; assay: In vivo inhibition of beta-secretase: Aβ40 reduction in rat CSF; settings: after 4 h
Text: (§2) In Vivo Inhibition of Beta-Secretase
Several animal models, including mouse, rat, dog, and monkey, may be used to screen for inhibition of beta-secretase activity in vivo following administration of a test compound sample. Animals used in this invention can be wild type, transgenic, or gene knockout animals. For example, the Tg2576 mouse model, prepared and conducted as described in Hsiao et al., 1996, Science 274, 99-102, and other non-transgenic or gene knockout animals are useful to analyze in vivo inhibition of Amyloid beta peptide (Abeta) production in the presence of inhibitory test compounds. Generally, 2 to 18 month old Tg2576 mice, gene knockout mice or non-transgenic animals are administered test compounds formulated in vehicles, such as cyclodextran, phosphate buffers, hydroxypropyl methylcellulose or other suitable vehicles. One to twenty-four hours following the administration of compound, animals are sacrificed, and brains as well as cerebrospinal fluid (CSF) and plasma are removed for analysis of A-beta levels and drug or test compound concentrations (Dovey et al., 2001, Journal of Neurochemistry, 76,173-181) Beginning at time 0, animals are administered by oral gavage, or other means of delivery such as intravenous injection, an inhibitory test compound of up to 100 mg/kg in a standard, conventional formulation, such as 2% hydroxypropyl methylcellulose, 1% Tween80. A separate group of animals receive 2% hydroxypropyl methylcellulose, 1% Tween80 alone, containing no test compound, and serve as a vehicle-control group. At the end of the test period, animals are sacrificed and brain tissues, plasma or cerebrospinal fluid are collected. […] Homogenates are centrifuged at 355,000 g, 4° C. for 30 minutes. CSF or brain supernatants are then analyzed for the presence of A-beta peptide by specific sandwich ELISA assays based on ECL (Electrochemiluminescence) technology. For example, rat Abeta40 is measured using biotinylated-4G8 (Signet) as a capture antibody and Fab40 (an in-house antibody specific to the C-terminal of Abeta40) as a detection antibody. For example, 4 hours after administration of 30 mg/kg oral dose of the test compound in 2% hydroxypropyl methylcellulose, 1% Tween80 (pH2.2) to 200 g male Sprague Dawley rats, amyloid beta peptide levels are measured for reduction by X % and Y % in cerebrospinal fluid and brain, respectively, when compared to the levels measured in the vehicle-treated or control mice.
(§3) Actual vehicles used: Oral: 2% HPMC, 1% Tween80, pH 2.2
The compounds of the invention may be shown to reduce the formation and/or deposition of amyloid beta peptide in the cerebrospinal fluid (CSF) as well as in the brain of a mouse or rat at either 3 mpk, 10 mpk or 30 mpk (mpk=mg compound per kg weight of the animal) dosing concentrations after 4 h.

[6] = system: Aβ 40 in rat brain; assay: In vivo inhibition of beta-secretase: Aβ40 reduction in rat brain; settings: after 4 h
Text: as §2
Several animal models, including mouse, rat, dog, and monkey, may be used to screen for inhibition of beta-secretase activity in vivo following administration of a test compound sample. Animals used in this invention can be wild type, transgenic, or gene knockout animals. […] One to twenty-four hours following the administration of compound, animals are sacrificed, and brains as well as cerebrospinal fluid (CSF) and plasma are removed for analysis of A-beta levels and drug or test compound concentrations (Dovey et al., 2001, Journal of Neurochemistry, 76,173-181) Beginning at time 0, animals are administered by oral gavage, or other means of delivery such as intravenous injection, an inhibitory test compound of up to 100 mg/kg in a standard, conventional formulation, such as 2% hydroxypropyl methylcellulose, 1% Tween80. A separate group of animals receive 2% hydroxypropyl methylcellulose, 1% Tween80 alone, containing no test compound, and serve as a vehicle-control group. At the end of the test period, animals are sacrificed and brain tissues, plasma or cerebrospinal fluid are collected. […] Homogenates are centrifuged at 355,000 g, 4° C. for 30 minutes. CSF or brain supernatants are then analyzed for the presence of A-beta peptide by specific sandwich ELISA assays based on ECL (Electrochemiluminescence) technology. For example, rat Abeta40 is measured using biotinylated-4G8 (Signet) as a capture antibody and Fab40 (an in-house antibody specific to the C-terminal of Abeta40) as a detection antibody.
as §3

Recombinant Cat D, sequence (P07339 65-412): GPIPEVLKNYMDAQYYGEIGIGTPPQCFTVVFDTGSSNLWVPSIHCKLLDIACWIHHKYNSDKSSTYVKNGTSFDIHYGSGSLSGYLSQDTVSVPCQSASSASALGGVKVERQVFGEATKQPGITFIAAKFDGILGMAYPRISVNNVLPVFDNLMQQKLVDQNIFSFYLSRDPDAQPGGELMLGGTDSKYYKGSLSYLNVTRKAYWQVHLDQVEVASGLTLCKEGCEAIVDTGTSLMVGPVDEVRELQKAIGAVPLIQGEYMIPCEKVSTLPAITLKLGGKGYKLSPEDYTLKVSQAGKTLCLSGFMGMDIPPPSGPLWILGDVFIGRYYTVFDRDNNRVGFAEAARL
human recombinant BACE2, sequence (Q9Y5Z0 63-518): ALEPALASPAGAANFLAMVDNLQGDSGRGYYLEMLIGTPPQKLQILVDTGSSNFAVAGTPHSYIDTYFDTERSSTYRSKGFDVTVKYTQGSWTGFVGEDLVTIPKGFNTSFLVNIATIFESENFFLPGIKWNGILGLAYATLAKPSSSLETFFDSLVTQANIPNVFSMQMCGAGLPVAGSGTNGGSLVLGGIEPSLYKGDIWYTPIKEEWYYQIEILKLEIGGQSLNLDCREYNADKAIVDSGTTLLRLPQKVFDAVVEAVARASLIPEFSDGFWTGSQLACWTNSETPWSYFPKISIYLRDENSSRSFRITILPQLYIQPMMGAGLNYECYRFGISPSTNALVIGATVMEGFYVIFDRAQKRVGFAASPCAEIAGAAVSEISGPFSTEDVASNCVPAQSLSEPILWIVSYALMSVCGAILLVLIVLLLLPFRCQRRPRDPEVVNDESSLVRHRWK
human recombinant BACE1, sequence (P56817 46-501): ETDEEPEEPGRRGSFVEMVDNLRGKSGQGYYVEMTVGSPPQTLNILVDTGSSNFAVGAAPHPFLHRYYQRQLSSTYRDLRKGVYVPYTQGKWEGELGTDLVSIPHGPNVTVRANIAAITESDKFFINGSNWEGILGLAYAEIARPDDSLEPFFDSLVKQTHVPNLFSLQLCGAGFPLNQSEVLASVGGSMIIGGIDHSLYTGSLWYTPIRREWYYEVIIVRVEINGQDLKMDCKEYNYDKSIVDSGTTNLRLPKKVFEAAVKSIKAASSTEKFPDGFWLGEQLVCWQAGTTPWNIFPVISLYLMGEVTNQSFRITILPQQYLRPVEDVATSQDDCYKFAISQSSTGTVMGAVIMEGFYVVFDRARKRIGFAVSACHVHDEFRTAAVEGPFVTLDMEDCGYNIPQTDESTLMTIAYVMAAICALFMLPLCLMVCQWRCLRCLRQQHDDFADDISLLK

SMILES	IC50 [1] [µM]	IC50 [2] [µM]	IC50 [3] [µM]	IC50 [4] [µM]	% Aβ 40 reduction in rat CSF at 10 mpk [5] [%]	% Aβ 40 reduction in rat brain at 10 mpk [6] [%]	% Aβ 40 reduction in rat CSF (3 mpk) [5]	% Aβ 40 reduction in rat brain (3 mpk) [6]
NC1=N[C@](CF)(c2cc(Nc3nccc4nc(OCc5ncco5)cnc34)ccc2F)C2C[C@@H]2S1 (stereo in doubt) [Example 56, N-(3-((1S,5S,6S)-3-amino-5-(fluoromethyl)-2-thia-4-azabicyclo[4.1.0]hept-3-en-5-yl)-4-fluorophenyl)-2-(1,3-oxazol-2-ylmethoxy)pyrido[3,4-b]pyrazin-5-amine]	0.00538	0.27	0.0135	> 400	50	32	–	–
NC1=N[C@](CF)(c2cc(NC(=O)c3ccc(Cl)cn3)ccc2F)[C@@H]2C[C@@H]2S1 [Example 1, N-(3-((1S,5S,6S)-3-amino-5-(fluoromethyl)-2-thia-4-azabicyclo[4.1.0]hept-3-en-5-yl)-4-fluorophenyl)-5-chloro-2-pyridinecarboxamide]	0.00551	0.0022	0.00871	74.5	58	28	–	–
N#Cc1ccc(C(=O)Nc2ccc(F)c([C@@]3(CF)N=C(N)S[C@H]4C[C@H]43)c2)nc1 [Example 2, N-(3-((1S,5S,6S)-3-amino-5-(fluoromethyl)-2-thia-4-azabicyclo[4.1.0]hept-3-en-5-yl)-4-fluorophenyl)-5-cyano-2-pyridinecarboxamide]	0.00747	0.0129	0.00437	> 400	72	67	–	–
NC1=N[C@](CF)(c2cc(NC(=O)c3ccc(Cl)cn3)cc(F)c2F)[C@@H]2C[C@@H]2S1 [Example 5, N-(3-((1S,5S,6S)-3-amino-5-(fluoromethyl)-2-thia-4-azabicyclo[4.1.0]hept-3-en-5-yl)-4,5-difluorophenyl)-5-chloro-2-pyridinecarboxamide]	0.00855	0.00154	0.0326	1420	43	19	–	–
N#Cc1ccc(C(=O)Nc2cc(F)c(F)c([C@@]3(CF)N=C(N)S[C@H]4C[C@H]43)c2)nc1 [Example 11, N-(3-((1S,5S,6S)-3-amino-5-(fluoromethyl)-2-thia-4-azabicyclo[4.1.0]hept-3-en-5-yl)-4,5-difluorophenyl)-5-cyano-2-pyridinecarboxamide]	0.0104	0.0275	0.0119	> 400	–	–	41 (3 mpk) %	25 (3 mpk) %
Cc1cc(C#N)cnc1C(=O)Nc1cc(F)c(F)c([C@@]2(CF)N=C(N)S[C@H]3C[C@H]32)c1 [Example 13, N-(3-((1S,5S,6S)-3-amino-5-(fluoromethyl)-2-thia-4-azabicyclo[4.1.0]hept-3-en-5-yl)-4,5-difluorophenyl)-5-cyano-3-methyl-2-pyridinecarboxamide]	0.00548	0.00618	0.00899	> 400	70	56	–	–
C#CCOc1cnc(C(=O)Nc2cc(F)c(F)c([C@@]3(CF)N=C(N)S[C@H]4C[C@H]43)c2)cn1 [Example 20, N-(3-((1S,5S,6S)-3-amino-5-(fluoromethyl)-2-thia-4-azabicyclo[4.1.0]hept-3-en-5-yl)-4,5-difluorophenyl)-5-(2-propyn-1-yloxy)-2-pyrazinecarboxamide]	0.0006	0.0394	0.00064	47.1	80	76	–	–
C[C@]1(c2cc(Nc3nccc4cc(C#N)cnc34)cc(F)c2F)N=C(N)S[C@H]2C[C@H]21 [Example 21, 8-((3-((1S,5S,6S)-3-amino-5-methyl-2-thia-4-azabicyclo[4.1.0]hept-3-en-5-yl)-4,5-difluorophenyl)amino)-1,7-naphthyridine-3-carbonitrile]	0.0145	0.00534	0.0164	> 133	61	40	–	–
C#CCOc1cnc(C(=O)Nc2cc(F)c(F)c([C@@]3(C)N=C(N)S[C@H]4C[C@H]43)c2)cn1 [Example 23, N-(3-((1S,5S,6S)-3-amino-5-methyl-2-thia-4-azabicyclo[4.1.0]hept-3-en-5-yl)-4,5-difluorophenyl)-5-(2-propyn-1-yloxy)-2-pyrazinecarboxamide]	0.00047	0.0374	0.00062	81.9	–	–	70 (3 mpk) %	61 (3 mpk) %
COC[C@]12C[C@H]1[C@@](C)(c1cc(Nc3nccc4cc(C#N)cnc34)cc(F)c1F)N=C(N)S2 [Example 33, 8-((3-((1S,5S,6S)-3-amino-1-(methoxymethyl)-5-methyl-2-thia-4-azabicyclo[4.1.0]hept-3-en-5-yl)-4,5-difluorophenyl)amino)-1,7-naphthyridine-3-carbonitrile]	0.00203	0.00169	0.00383	> 400	65	53	–	–
COC[C@]12C[C@H]1[C@@](C)(c1cc(Nc3ncnc4cc(Cl)cnc34)cc(F)c1F)N=C(N)S2 [Example 35, N-(3-((1S,5S,6S)-3-amino-1-(methoxymethyl)-5-methyl-2-thia-4-azabicyclo[4.1.0]hept-3-en-5-yl)-4,5-difluorophenyl)-7-chloropyrido[3,2-d]pyrimidin-4-amine]	0.00386	0.00363	0.00288	213	63	50	–	–
